Source: ChEMBL document CHEMBL1201862, “PubChem BioAssay data set” (2004)
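Cells were grown in 96-well plates and exposed to each compound for 48 hours at five concentrations; endpoints were interpolated linearly between bracketing concentrations, or set to the highest concentration if not reached. At the GI50, growth is halved.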 Calls of active or inactive are those of the source. Rule as the data show it: active = GI50 up to about 1.1 µM and inactive = higher.

Tests used:
Assay in all cases: growth of human tumour cells (NCI), 48 h
786-0 = test system: 786-0
A498 = test system: A498
A549 = test system: A549
ACHN = test system: ACHN
BT-549 = test system: BT-549
CAKI-1 = test system: CAKI-1
CCRF-CEM = test system: CCRF-CEM
COLO 205 = test system: COLO 205
DU-145 = test system: DU-145
EKVX = test system: EKVX
HCC 2998 = test system: HCC 2998
HCT-116 = test system: HCT-116
HCT-15 = test system: HCT-15
HOP-62 = test system: HOP-62
HOP-92 = test system: HOP-92
HT-29 = test system: HT-29
Hs-578T = test system: Hs-578T
IGROV-1 = test system: IGROV-1
K562 = test system: K562
KM12 = test system: KM12
LOX IMVI = test system: LOX IMVI
M14 = test system: M14
MCF7 = test system: MCF7
MDA-MB-231 = test system: MDA-MB-231
MDA-MB-435 = test system: MDA-MB-435
MDA-N = test system: MDA-N
MOLT-4 = test system: MOLT-4
Malme-3M = test system: Malme-3M
NCI-H23 = test system: NCI-H23
NCI-H460 = test system: NCI-H460
NCI-H522 = test system: NCI-H522
NCI/ADR-RES = test system: NCI/ADR-RES
OVCAR-3 = test system: OVCAR-3
OVCAR-4 = test system: OVCAR-4
OVCAR-5 = test system: OVCAR-5
OVCAR-8 = test system: OVCAR-8
PC-3 = test system: PC-3
RPMI-8226 = test system: RPMI-8226
RXF 393 = test system: RXF 393
SF-268 = test system: SF-268
SF-295 = test system: SF-295
SF-539 = test system: SF-539
SK-MEL-28 = test system: SK-MEL-28
SK-MEL-2 = test system: SK-MEL-2
SK-MEL-5 = test system: SK-MEL-5
SK-OV-3 = test system: SK-OV-3
SN12C = test system: SN12C
SNB-19 = test system: SNB-19
SW-620 = test system: SW-620
T47D = test system: T47D
TK-10 = test system: TK-10
U-251 = test system: U-251
UACC-257 = test system: UACC-257
UACC-62 = test system: UACC-62
UO-31 = test system: UO-31
HL-60 = test system: HL-60
NCI-H226 = test system: NCI-H226
SNB-75 = test system: SNB-75

Cc1ccc2c(c1)C(=O)N1CCC[C@H]1C=N2
GI50 (786-0): 27.1 µM (inactive) | GI50 (A498): 34 µM (inactive) | GI50 (A549): 30.7 µM (inactive) | GI50 (ACHN): 15 µM (inactive) | GI50 (BT-549): 17.8 µM (inactive) | GI50 (CAKI-1): 15.6 µM (inactive) | GI50 (CCRF-CEM): 4.02 µM (inactive) | GI50 (COLO 205): 17.6 µM (inactive) | GI50 (DU-145): 7.78 µM (inactive) | GI50 (EKVX): 26.4 µM (inactive) | GI50 (HCC 2998): 19.6 µM (inactive) | GI50 (HCT-116): 30 µM (inactive) | GI50 (HCT-15): 28.5 µM | GI50 (HOP-62): 27.7 µM (inactive) | GI50 (HOP-92): 25.5 µM (inactive) | GI50 (HT-29): 15.4 µM (inactive) | GI50 (Hs-578T): 15.3 µM (inactive) | GI50 (IGROV-1): 14.3 µM (inactive) | GI50 (K562): 7.76 µM (inactive) | GI50 (KM12): 15.5 µM (inactive) | GI50 (LOX IMVI): 23.6 µM (inactive) | GI50 (M14): 16.9 µM (inactive) | GI50 (MCF7): 11.9 µM (inactive) | GI50 (MDA-MB-231): 19.2 µM (inactive) | GI50 (MDA-MB-435): 16.7 µM (inactive) | GI50 (MDA-N): 19.2 µM (inactive) | GI50 (MOLT-4): 18.8 µM (inactive) | GI50 (Malme-3M): 18.7 µM (inactive) | GI50 (NCI-H23): 16.5 µM (inactive) | GI50 (NCI-H460): 20.4 µM (inactive) | GI50 (NCI-H522): 5.13 µM (inactive) | GI50 (NCI/ADR-RES): 21.1 µM (inactive) | GI50 (OVCAR-3): 19.1 µM (inactive) | GI50 (OVCAR-4): 19.4 µM (inactive) | GI50 (OVCAR-5): 28.4 µM (inactive) | GI50 (OVCAR-8): 23.9 µM (inactive) | GI50 (PC-3): 17.7 µM (inactive) | GI50 (RPMI-8226): 10.1 µM (inactive) | GI50 (RXF 393): 4.21 µM (inactive) | GI50 (SF-268): 31.3 µM (inactive) | GI50 (SF-295): 31.3 µM (inactive) | GI50 (SF-539): 18.3 µM (inactive) | GI50 (SK-MEL-28): 22.7 µM (inactive) | GI50 (SK-MEL-2): 17.5 µM (inactive) | GI50 (SK-MEL-5): 11.1 µM (inactive) | GI50 (SK-OV-3): 42 µM (inactive) | GI50 (SN12C): 23 µM (inactive) | GI50 (SNB-19): 28.2 µM (inactive) | GI50 (SW-620): 23.4 µM (inactive) | GI50 (T47D): 18.4 µM (inactive) | GI50 (TK-10): 20.5 µM (inactive) | GI50 (U-251): 16.3 µM (inactive) | GI50 (UACC-257): 21.9 µM (inactive) | GI50 (UACC-62): 16.6 µM (inactive) | GI50 (UO-31): 5.37 µM (inactive)

COC(=O)C1=C(OC)C(=P2(c3ccccc3)CC(c3ccccc3)=C2c2ccccc2)C(C(=O)OC)=C1C(=O)OC (stereo not drawn)
GI50 (786-0): 27.4 µM (inactive) | GI50 (A549): 26.4 µM (inactive) | GI50 (ACHN): 49.8 µM (inactive) | GI50 (BT-549): > 76.6 µM (inactive) | GI50 (CAKI-1): 50.4 µM (inactive) | GI50 (CCRF-CEM): 0.745 µM (active) | GI50 (COLO 205): 18.8 µM (inactive) | GI50 (DU-145): > 61.2 µM (inactive) | GI50 (EKVX): > 91.8 µM (inactive) | GI50 (HCC 2998): > 100 µM (inactive) | GI50 (HCT-116): 22.8 µM (inactive) | GI50 (HCT-15): 11 µM | GI50 (HL-60): 0.968 µM (active) | GI50 (HOP-62): > 100 µM (inactive) | GI50 (Hs-578T): > 100 µM (inactive) | GI50 (IGROV-1): 22.2 µM (inactive) | GI50 (K562): 4.58 µM (inactive) | GI50 (KM12): 27.5 µM (inactive) | GI50 (LOX IMVI): 25.1 µM (inactive) | GI50 (M14): 43.5 µM (inactive) | GI50 (MCF7): 7.55 µM (inactive) | GI50 (MDA-MB-231): > 72.8 µM (inactive) | GI50 (MDA-MB-435): 40.7 µM (inactive) | GI50 (MDA-N): 38 µM (inactive) | GI50 (MOLT-4): 3.17 µM (inactive) | GI50 (Malme-3M): 29.9 µM (inactive) | GI50 (NCI-H226): 68.9 µM (inactive) | GI50 (NCI-H23): 33.8 µM (inactive) | GI50 (NCI-H460): 15 µM (inactive) | GI50 (NCI-H522): 2.65 µM (inactive) | GI50 (NCI/ADR-RES): > 82.4 µM (inactive) | GI50 (OVCAR-3): 35 µM (inactive) | GI50 (OVCAR-4): 19.5 µM (inactive) | GI50 (OVCAR-5): > 100 µM (inactive) | GI50 (OVCAR-8): > 95.7 µM (inactive) | GI50 (PC-3): 10.8 µM (inactive) | GI50 (RPMI-8226): 9.42 µM (inactive) | GI50 (RXF 393): 18.1 µM (inactive) | GI50 (SF-268): > 61.1 µM (inactive) | GI50 (SF-295): > 76.6 µM (inactive) | GI50 (SF-539): 23.6 µM (inactive) | GI50 (SK-MEL-28): > 68.5 µM (inactive) | GI50 (SK-MEL-2): 54.5 µM (inactive) | GI50 (SK-MEL-5): 15.7 µM (inactive) | GI50 (SK-OV-3): > 61.5 µM (inactive) | GI50 (SN12C): 31.8 µM (inactive) | GI50 (SNB-19): 67.1 µM (inactive) | GI50 (SNB-75): 41.6 µM (inactive) | GI50 (SW-620): 14.6 µM (inactive) | GI50 (T47D): 15.5 µM (inactive) | GI50 (TK-10): > 20.2 µM (inactive) | GI50 (U-251): 19.9 µM (inactive) | GI50 (UACC-257): > 71.1 µM (inactive) | GI50 (UACC-62): 61.2 µM (inactive) | GI50 (UO-31): 14.9 µM (inactive)

c1ccc([P+](Cc2ccccc2C[P+](c2ccccc2)(c2ccccc2)c2ccccc2)(c2ccccc2)c2ccccc2)cc1
GI50 (786-0): > 100 µM (inactive) | GI50 (A498): > 100 µM (inactive) | GI50 (A549): > 100 µM (inactive) | GI50 (ACHN): > 100 µM (inactive) | GI50 (BT-549): 65.9 µM (inactive) | GI50 (CAKI-1): > 100 µM (inactive) | GI50 (COLO 205): > 100 µM (inactive) | GI50 (DU-145): > 100 µM (inactive) | GI50 (HCC 2998): > 100 µM (inactive) | GI50 (HCT-116): 29.4 µM (inactive) | GI50 (HCT-15): > 100 µM | GI50 (HL-60): 22.8 µM (inactive) | GI50 (HOP-62): > 100 µM (inactive) | GI50 (HT-29): 51.2 µM (inactive) | GI50 (Hs-578T): > 100 µM (inactive) | GI50 (IGROV-1): 66.1 µM (inactive) | GI50 (K562): 42.5 µM (inactive) | GI50 (KM12): 49.9 µM (inactive) | GI50 (LOX IMVI): 37.6 µM (inactive) | GI50 (M14): > 100 µM (inactive) | GI50 (MCF7): > 100 µM (inactive) | GI50 (MDA-MB-231): > 100 µM (inactive) | GI50 (MDA-MB-435): 42.8 µM (inactive) | GI50 (MDA-N): 30.3 µM (inactive) | GI50 (Malme-3M): > 100 µM (inactive) | GI50 (NCI-H226): > 100 µM (inactive) | GI50 (NCI-H23): 87.3 µM (inactive) | GI50 (NCI-H460): 38.9 µM (inactive) | GI50 (NCI-H522): > 100 µM (inactive) | GI50 (NCI/ADR-RES): > 100 µM (inactive) | GI50 (OVCAR-3): 86.7 µM (inactive) | GI50 (OVCAR-5): > 100 µM (inactive) | GI50 (OVCAR-8): > 100 µM (inactive) | GI50 (PC-3): > 100 µM (inactive) | GI50 (RPMI-8226): 6.03 µM (inactive) | GI50 (RXF 393): > 100 µM (inactive) | GI50 (SF-268): > 100 µM (inactive) | GI50 (SF-295): 57.8 µM (inactive) | GI50 (SF-539): > 100 µM (inactive) | GI50 (SK-MEL-28): > 100 µM (inactive) | GI50 (SK-MEL-2): > 100 µM (inactive) | GI50 (SK-MEL-5): > 100 µM (inactive) | GI50 (SK-OV-3): > 100 µM (inactive) | GI50 (SN12C): > 100 µM (inactive) | GI50 (SNB-19): 50.6 µM (inactive) | GI50 (SNB-75): > 100 µM (inactive) | GI50 (SW-620): > 100 µM (inactive) | GI50 (T47D): > 100 µM (inactive) | GI50 (TK-10): > 100 µM (inactive) | GI50 (U-251): 63.5 µM (inactive) | GI50 (UACC-257): > 100 µM (inactive) | GI50 (UACC-62): 44.2 µM (inactive) | GI50 (UO-31): > 100 µM (inactive)
